US5480892A, “(N-phthalimidoalkyl)piperidines” (The Du Pont Merck Pharmaceutical Company, priority 1994, dated 1996)
Like-named read-outs stand apart in the source and are kept apart here.

What was measured:
[1] = target: T1, Sigma receptor (Cavia porcellus, UniProt Q60492); test: Sigma Receptor Binding Assay; type: guinea pig (male Hartley), brain membranes
T1 construct: Brain membranes were prepared by the method of Tam; from tissue; host or cells: guinea pig whole brain membranes
Procedure: Male Hartley guinea pigs (250-300 g, Charles River) were sacrificed by decapitation. […] Whole brains were homogenized (20 sec.) in 10 vol (wt/vol) of ice-cold 0.34 M sucrose with a Brinkmann Polytron (setting 8). The homogenate was centrifuged at 920×g for 10 min. The supernatant was centrifuged at 47,000×g for 20 min. The resulting membrane pellet was resuspended in 10 vol (original wt/vol) of 50 mM Tris HCl (pH 7.4) and incubated at 37° C. for 45 min to degrade and dissociate bound endogenous ligands. The membranes were then centrifuged at 47,000×g for 20 min and resuspended in 50 mM Tris HCl (50 mL per brain).
After 45 rain of incubation at room temperature, samples were filtered rapidly through Whatman GF/C glass filters under negative pressure, and washed 3 times with ice-cold Tris buffer (5 mL).
IC50 s were calculated from log-logit plots. Apparent Ki s were calculated from the equation, Ki =IC50 /[1+(L/Kd)], where L is the concentration of radioligand and Kd is its dissociation constant.

[2] = target: T2, Dopamine (D-2) receptor (Cavia porcellus, UniProt H0VE83); test: Dopamine Receptor Binding; type: guinea pig, striatum membranes
T2 construct: Membranes were prepared from guinea pig striatum; from tissue; host or cells: guinea pig striatum membranes
Procedure: Membranes were prepared from guinea pig striatum by the method described for sigma receptor binding. The membranes were then resuspended in 50 mM Tris HCl (9 mL per brain).
Nonspecific binding was measured in the presence of 100 nM (+)-butaclamol After 15 min of incubation at 37° C. samples were filtered rapidly through Whatman GF/C glass filters under negative pressure, and washed three times with ice-cold binding buffer (5 mL).

[3] = 1 nM (+)-[3H]SKF 10,047, guinea pig brain membranes, pH 7.4, 45 min room temperature, read-out: Receptor Binding Affinity Sigma (Ki class)
[4] = 0.15 nM [3H]spiperone, guinea pig striatum, pH 7.7, 15 min 37° C., read-out: Receptor Binding Affinity Dopamine (D-2) (Ki class)

T1 sequence (Q60492 whole entry): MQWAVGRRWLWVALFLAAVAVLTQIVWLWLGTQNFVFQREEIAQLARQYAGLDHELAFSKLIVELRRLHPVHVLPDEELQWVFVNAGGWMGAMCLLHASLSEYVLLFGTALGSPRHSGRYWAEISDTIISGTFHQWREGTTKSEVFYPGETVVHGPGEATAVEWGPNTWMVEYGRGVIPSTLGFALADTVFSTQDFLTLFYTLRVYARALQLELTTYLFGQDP
T2 sequence (H0VE83 1-446): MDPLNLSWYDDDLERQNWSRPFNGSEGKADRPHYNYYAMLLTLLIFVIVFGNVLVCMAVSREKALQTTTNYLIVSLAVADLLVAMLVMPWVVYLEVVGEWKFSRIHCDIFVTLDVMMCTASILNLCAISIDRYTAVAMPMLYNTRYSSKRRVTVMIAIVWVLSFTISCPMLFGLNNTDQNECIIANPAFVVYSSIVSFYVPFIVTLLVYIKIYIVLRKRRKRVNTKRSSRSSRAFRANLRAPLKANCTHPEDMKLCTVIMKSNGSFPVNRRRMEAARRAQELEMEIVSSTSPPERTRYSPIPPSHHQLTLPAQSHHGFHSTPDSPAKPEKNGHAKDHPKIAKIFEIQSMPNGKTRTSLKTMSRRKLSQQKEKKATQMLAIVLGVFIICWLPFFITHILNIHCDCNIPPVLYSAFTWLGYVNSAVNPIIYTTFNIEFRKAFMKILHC

SMILES: O=C1[C@H]2CCCC[C@H]2C(=O)N1C1CCN(CCc2ccccc2)CC1 [Example 13]
- Ki [1, 3]: 0.031 to 0.1 µM
- Ki [2, 4]: > 0.5 µM

SMILES: O=C1[C@H]2CCCC[C@H]2C(=O)N1CC1CCN(CCc2ccc(Cl)cc2)CC1 [Example 26]
- Ki [1, 3]: 0.001 to 0.03 µM
- Ki [2, 4]: > 0.5 µM

SMILES: O=C1C2C3C=CC(CCC3)C2C(=O)N1CC1(O)CCN(CCc2ccccc2)CC1 (stereo not shown) [Example 75]
- Ki [1, 3]: 0.001 to 0.03 µM
- Ki [2, 4]: > 0.5 µM

SMILES: O=C1[C@@H]2CCCC[C@H]2C(=O)N1CC1CCN(CCc2ccccc2)CC1 (relative stereo) [Example 22]
- Ki [1, 3]: 0.031 to 0.1 µM
- Ki [2, 4]: > 0.5 µM

SMILES: O=C1[C@H]2CCCC[C@H]2C(=O)N1CC1CCN(CCc2ccc([N+](=O)[O-])cc2)CC1 [Example 27]
- Ki [1, 3]: 0.001 to 0.03 µM
- Ki [2, 4]: > 0.5 µM

SMILES: O=C1[C@H]2CC=CC[C@H]2C(=O)N1CC1CCN(CCc2ccccc2)CC1 [Example 1, 2-[1-(2-Phenylethyl)-4-piperidinylmethyl]-cis-3a; 4,7,7a-tetrahydro-1H-isoindole-1,3(2H)-dione]
- Ki [1, 3]: 0.031 to 0.1 µM
- Ki [2, 4]: > 0.5 µM

SMILES: O=C1C2C3CCCC(CC3)C2C(=O)N1CC1CCN(CCc2ccccc2)CC1 (stereo not shown) [Example 61]
- Ki [1, 3]: 0.001 to 0.03 µM
- Ki [2, 4]: > 0.5 µM

SMILES: O=C1[C@H]2CCCC[C@H]2C(=O)N1CC1CCN(CCc2c[nH]c3ccccc23)CC1 [Example 32]
- Ki [1, 3]: 0.101 to 0.5 µM
- Ki [2]: > 0.5 µM

SMILES: COc1cccc(C2(CN3C(=O)C4CCCCC4C3=O)CCN(CCc3ccccc3)CC2)c1 (stereo not shown) [Example 125]
- Ki [1]: 0.031 to 0.1 µM
- Ki [2]: > 0.5 µM

SMILES: O=C1[C@H]2CC=CC[C@H]2C(=O)N1CC1=CCN(CCc2ccccc2)CC1 [Example 117]
- Ki [1, 3]: 0.001 to 0.03 µM
- Ki [2, 4]: > 0.5 µM

SMILES: O=C1[C@H]2CCCC[C@H]2C(=O)N1CC1CCN(Cc2cccc(C(F)(F)F)c2)CC1 [Example 18]
- Ki [1, 3]: 0.031 to 0.1 µM
- Ki [2, 4]: > 0.5 µM

SMILES: O=C1C2C3C=CC(C4CCC34)C2C(=O)N1CC1(O)CCN(CCc2ccccc2)CC1 (stereo not shown) [Example 77]
- Ki [1, 3]: 0.031 to 0.1 µM
- Ki [2, 4]: > 0.5 µM

SMILES: O=C1[C@H]2CCCC[C@H]2C(=O)N1CC1CCN(CCc2ccc(C(F)(F)F)cc2)CC1 [Example 31]
- Ki [1, 3]: 0.101 to 0.5 µM
- Ki [2, 4]: > 0.5 µM

SMILES: O=C1c2ccccc2C(=O)N1CCC1CCN(Cc2cccc(F)c2)CC1 [Example 40]
- Ki [1, 3]: 0.001 to 0.03 µM
- Ki [2, 4]: > 0.5 µM

SMILES: O=C1C2C3C=CC(C4CCC34)C2C(=O)N1CC1CCN(CCc2ccccc2)CC1 (stereo not shown) [Example 59]
- Ki [1, 3]: 0.031 to 0.1 µM
- Ki [2, 4]: > 0.5 µM

SMILES: O=C1[C@H]2CCCC[C@H]2C(=O)N1CC1CCN(CCc2ccc(Br)cc2)CC1 [Example 30]
- Ki [1, 3]: 0.001 to 0.03 µM
- Ki [2, 4]: 0.101 to 0.5 µM

SMILES: O=C1C2C3C=CC(C4CCC34)C2C(=O)N1CC1CCN(CCc2ccccc2)CC1 (stereo not shown) [Example 113]
- Ki [1, 3]: 0.031 to 0.1 µM

SMILES: CC12CC=CCC1(C)C(=O)N(CC1CCN(CCc3ccccc3)CC1)C2=O (stereo not shown) [Example 66]
- Ki [1, 3]: 0.031 to 0.1 µM
- Ki [2, 4]: > 0.5 µM

SMILES: O=C1C2C3CC(c4ccccc43)C2C(=O)N1CC1CCN(CCc2ccccc2)CC1 (stereo not shown) [Example 57]
- Ki [1, 3]: 0.001 to 0.03 µM
- Ki [2, 4]: > 0.5 µM

SMILES: CC1C2=C(CCCC2)C(=O)N1CC1CCN(CCc2ccccc2)CC1 (stereo not shown) [Example 70, 2,3,4,5,6,7, -hexahydro-2-[[1-(2-phenylethyl)-4-piperidinyl]methyl]-3-methyl-1H-isoindol-1-one]
- Ki [1, 3]: 0.101 to 0.5 µM
- Ki [2, 4]: 0.101 to 0.5 µM

SMILES: CC12CC=CCC1C(=O)N(CC1CCN(CCc3ccccc3)CC1)C2=O (stereo not shown) [Example 67]
- Ki [1, 3]: 0.101 to 0.5 µM
- Ki [2, 4]: > 0.5 µM

SMILES: O=C1[C@H]2CCCC[C@H]2C(=O)N1CC1(c2ccc(Cl)cc2)CCN(CCc2ccccc2)CC1 [Example 124]
- Ki [1]: 0.001 to 0.03 µM
- Ki [2, 4]: > 0.5 µM

SMILES: CC12CCCCC1C(=O)N(CC1CCN(CCc3ccccc3)CC1)C2=O (stereo not shown) [Example 64]
- Ki [1, 3]: 0.031 to 0.1 µM
- Ki [2, 4]: > 0.5 µM

SMILES: O=C1C2CCCCC2C(=O)N1CC1(c2cccc(C(F)(F)F)c2)CCN(CCc2ccccc2)CC1 (stereo not shown) [Example 126]
- Ki [1]: 0.001 to 0.03 µM
- Ki [2, 4]: > 0.5 µM

SMILES: O=C1[C@H]2CCCC[C@H]2C(=O)N1CC1CCN(CCc2ccc(F)cc2)CC1 [Example 29]
- Ki [1, 3]: 0.031 to 0.1 µM
- Ki [2, 4]: > 0.5 µM

SMILES: O=C1[C@H]2CCCC[C@H]2C(=O)N1CC1CCN(Cc2ccccc2)CC1 [Example 14]
- Ki [1, 3]: 0.001 to 0.03 µM
- Ki [2, 4]: > 0.5 µM

SMILES: O=C1[C@H]2CC=CC[C@H]2C(=O)N1CCCC1=CCN(CCc2ccccc2)CC1 [Example 118]
- Ki [1, 3]: 0.001 to 0.03 µM
- Ki [2, 4]: > 0.5 µM

SMILES: O=C1c2ccccc2C(=O)N1CCC1CCN(Cc2ccccc2)CC1 [Example 38]
- Ki [1, 3]: 0.001 to 0.03 µM
- Ki [2, 4]: > 0.5 µM

SMILES: O=C1[C@H]2CCCC[C@H]2C(=O)N1CC1(c2ccsc2)CCN(CCc2ccccc2)CC1 [Example 128]
- Ki [1]: 0.001 to 0.03 µM
- Ki [2, 4]: > 0.5 µM

SMILES: CN(C)c1ccc(CCN2CCC(CN3C(=O)[C@H]4CCCC[C@H]4C3=O)CC2)cc1 [Example 28]
- Ki [1, 3]: 0.001 to 0.03 µM
- Ki [2, 4]: > 0.5 µM

SMILES: O=C1c2ccccc2C(=O)N1CCCC1CCN(CCc2ccccc2)CC1 [Example 44]
- Ki [1, 3]: 0.001 to 0.03 µM
- Ki [2, 4]: > 0.5 µM

SMILES: O=C1[C@H]2CCCC[C@H]2C(=O)N1CCC1CCN(CCc2ccccc2)CC1 [Example 24]
- Ki [1, 3]: 0.001 to 0.03 µM
- Ki [2, 4]: > 0.5 µM

SMILES: O=C1C2C3C=CC(CCC3)C2C(=O)N1CC1CCN(CCc2ccccc2)CC1 (stereo not shown) [Example 62]
- Ki [1, 3]: 0.001 to 0.03 µM
- Ki [2, 4]: > 0.5 µM

SMILES: O=C1C2C3CCC(O3)C2C(=O)N1CC1CCN(CCc2ccccc2)CC1 (stereo not shown) [Example 58]
- Ki [1, 3]: 0.001 to 0.03 µM
- Ki [2, 4]: > 0.5 µM

SMILES: O=C1[C@H]2CCCC[C@H]2C(=O)N1CC1(c2cccc(Cl)c2)CCN(CCc2ccccc2)CC1 [Example 123]
- Ki [1]: 0.001 to 0.03 µM
- Ki [2, 4]: > 0.5 µM

SMILES: O=C1[C@H]2CCCC[C@H]2C(=O)N1CC1(c2ccccc2)CCN(CCc2ccccc2)CC1 [Example 122, 2-[1-(2-Phenylethyl)-4-phenyl-4-piperidine-methyl]-cis-3a; 4,5,6,7,7a-hexalydro-1H-isoindole-1,3(2H)-dione]
- Ki [1]: 0.001 to 0.03 µM
- Ki [2, 4]: > 0.5 µM

SMILES: O=C1c2ccccc2C(=O)N1CC1CCCN(CCc2ccccc2)C1 (stereo not shown) [Example 48]
- Ki [1, 3]: 0.001 to 0.03 µM
- Ki [2, 4]: > 0.5 µM

SMILES: O=C1[C@H]2CCCC[C@H]2C(=O)N1CCC1=CCN(CCc2ccccc2)CC1 [Example 120]
- Ki [1, 3]: 0.001 to 0.03 µM
- Ki [2, 4]: > 0.5 µM

SMILES: O=C1c2ccccc2C(=O)N1CC1(c2cccc(Cl)c2)CCN(CCc2ccccc2)CC1 [Example 130]
- Ki [1]: 0.001 to 0.03 µM
- Ki [2, 4]: > 0.5 µM

SMILES: CC1(CN2C(=O)[C@H]3CCCC[C@H]3C2=O)CCN(CCc2ccccc2)CC1 [Example 132, 2-[1-(2-Phenylethyl)-4-(4-methyl)piperidinylmethyl]-cis-3a, 4,5,6,7,7a-hexahydro-1H-isoindole-1,3(2H)-dione]
- Ki [1, 3]: 0.001 to 0.03 µM
- Ki [2, 4]: > 0.5 µM

SMILES: O=C1C2C3C=CC(C4C=CC43)C2C(=O)N1CC1(O)CCN(CCc2ccccc2)CC1 (stereo not shown) [Example 76]
- Ki [1, 3]: 0.031 to 0.1 µM
- Ki [2, 4]: > 0.5 µM

SMILES: O=C1c2ccccc2C(O)N1CC1CCN(CCc2ccccc2)CC1 (stereo not shown) [Example 7, 2,3-Dihydro-3-hydroxy-2-[[1-(2-phenylethyl]-4-piperidinyl]methyl]-1H-isoindol-1-one]
- Ki [1, 3]: 0.101 to 0.5 µM
- Ki [2, 4]: > 0.5 µM

SMILES: O=C1C2C3C=CC(C3)C2C(=O)N1CC1CCN(CCc2ccccc2)CC1 (stereo not shown) [Example 55]
- Ki [1, 3]: 0.031 to 0.1 µM
- Ki [2, 4]: > 0.5 µM

SMILES: O=C1C2CCCCC2C(O)N1CC1CCN(CCc2ccccc2)CC1 (stereo not drawn) [Example 5, cis-Octahydro-3-hydroxy-2-[[1-(2-phenylethyl)-4-piperidinyl]methyl]-1H-isoindol-1-one]
- Ki [1, 3]: 0.101 to 0.5 µM
- Ki [2, 4]: > 0.5 µM

SMILES: O=C1C2C3CCC(C4CCC43)C2C(=O)N1CC1CCN(CCc2ccccc2)CC1 (stereo not shown) [Example 72]
- Ki [1, 3]: 0.001 to 0.03 µM
- Ki [2, 4]: 0.101 to 0.5 µM

SMILES: O=C1[C@H]2CCCC[C@H]2C(=O)N1CC1CCN(CCc2ccc(O)cc2)CC1 [Example 19]
- Ki [1, 3]: 0.101 to 0.5 µM
- Ki [2, 4]: 0.101 to 0.5 µM

SMILES: O=C1c2ccccc2C(=O)N1CCC1CCN(CC2CC2)CC1 [Example 42]
- Ki [1, 3]: 0.001 to 0.03 µM
- Ki [2, 4]: > 0.5 µM

SMILES: O=C1C2C3CCC(C3)C2CN1CC1CCN(CCc2ccccc2)CC1 (stereo not shown) [Example 54]
- Ki [1, 3]: 0.031 to 0.1 µM
- Ki [2, 4]: > 0.5 µM

SMILES: O=C1c2ccccc2C(=O)N1CCCC1CCN(Cc2ccccc2)CC1 [Example 43]
- Ki [1, 3]: 0.001 to 0.03 µM
- Ki [2, 4]: > 0.5 µM

SMILES: O=C1[C@H]2CCCC[C@H]2C(=O)N1CC1CCN(CC2CC2)CC1 [Example 21]
- Ki [1, 3]: 0.101 to 0.5 µM
- Ki [2, 4]: > 0.5 µM

SMILES: O=C1c2ccccc2C(=O)N1CCCC1CCCN(CCc2ccccc2)C1 (stereo not shown) [Example 49]
- Ki [1, 3]: 0.001 to 0.03 µM
- Ki [2, 4]: > 0.5 µM

SMILES: CC1(O)C2CCCCC2C(=O)N1CC1CCN(CCc2ccccc2)CC1 (stereo not drawn) [Example 8, cis-Octahydro-3-hydroxy-3-methyl-2-[[1-(2-phenylethyl)4-piperidinyl]methyl]-1H-isoindol-1-one]
- Ki [1, 3]: 0.101 to 0.5 µM
- Ki [2, 4]: > 0.5 µM
